Experiments:
[1] = tested on: Chloroform-induced arrhythmia; assay: Chloroform-induced arrhythmia (mice); details: for minimal effective dose: Mus musculus, po, 1 h, read-out: Effective dose; for Lethal dose: peroral, mice
Method: (1) Chloroform-induced arrhythmia (mice):
Ventricular arrhythmia was caused experimentally in mice by the following method.
The mice were placed in a device filled with chloroform gas. After expiring, the ventricular pulse was counted from a record of an electrocardiogram. The antiarrhythmic activity of the test compound was determined based on its effect of relieving tachycardia. […] The compounds were tested by administration by two routes, i.e. peroral and intravenous injection. […] As comparative standard medicines, quinidine, disopyramide and phenytoin were employed. This method is taught in the publication, J. Pharmacol. Exp. Ther. 160,22 (1968), by J. W. Lawson.

[2] = Acute toxicity (rats), peroral; details: rat, in vivo, po
Source text: (3) Acute toxicity (rats):
The acute toxicity tests on rats (peroral administration) were effected using typical compounds of the present invention, i.e. 6-chloro-2,2-dimethyl-1'-[3-(4-hydroxypiperidino)propyl]spiro[chroman-4,4'-imidazolidine]-2',5'-dione (compound 1) and 2,2-dimethyl-6-fluoro-1'-[3-(4-hydroxypiperidino)propyl]-spiro[chroman-4,4'-imidazolidine]-2',5'-dione (compound 2).

[3] = tested on: myocardia; assay: Contraction of the myocardia; details: dose several times as much as that required for the antiarrhythmic effects
Source text: This property is quite preferred when they are used as antiarrhythmic agents.

| Structure (SMILES) | minimal effective dose [1] [mg/kg] | Lethal dose [1] [mg/kg] | LD50 ([2]; female rats) [mg/kg] | LD50 ([2]; male rats) [mg/kg] | contraction power of the myocardia [3] |
| --- | --- | --- | --- | --- | --- |
| CCN(CC)CCN1C(=O)NC2(CC(C)(C)Oc3ccc(F)cc32)C1=O (stereo not shown) | 12.5 | 200 | – | – | – |
| CC(C)N(CCN1C(=O)NC2(CC(C)(C)Oc3ccc(F)cc32)C1=O)C(C)C (stereo not shown) | 25 | 200 | – | – | – |
| CN(C)CCN1C(=O)NC2(CC(C)(C)Oc3ccc(F)cc32)C1=O (stereo not shown) | 50 | 400 | – | – | – |
| CC1CC2(NC(=O)N(CCCN(C)C)C2=O)c2cc(Cl)ccc2O1 (stereo not shown) | 12.5 | 50 | – | – | – |
| CCC1(CC)CC2(NC(=O)N(CCCN(C)C)C2=O)c2cc(Cl)ccc2O1 (stereo not shown) | 25 | 400 | – | – | – |
| CC1(C)CC2(NC(=O)N(CCCN3CCC(O)CC3)C2=O)c2cc(Cl)cc(Cl)c2O1 (stereo not shown) | 12.5 | 400 | – | – | – |
| CC1(C)CC2(NC(=O)N(CCCN3CCC(c4ccccc4)CC3)C2=O)c2cc(F)ccc2O1 (stereo not shown) | 50 | 200 | – | – | – |
| CCC1(CC)CC2(NC(=O)N(CCCN3CCC(O)CC3)C2=O)c2cc(F)ccc2O1 (stereo not shown) | 25 | 400 | – | – | – |
| COC1CCN(CCCN2C(=O)NC3(CC(C)(C)Oc4ccc(F)cc43)C2=O)CC1 (stereo not shown) | 25 | 400 | – | – | – |
| CC1(C)CC2(NC(=O)N(CCCN3CCC(O)CC3)C2=O)c2cc(Cl)ccc2O1 (stereo not shown) [Compound 1, 6-chloro-2,2-dimethyl-1'-[3-(4-hydroxypiperidino)propyl]spiro[chroman-4,4'-imidazolidine]-2',5'-dione] | – | – | 858 | 930 | – |
| CC1(C)CC2(NC(=O)N(CCCN3CCC(O)CC3)C2=O)c2cc(F)ccc2O1 (stereo not shown) [Compound 2, 2,2-dimethyl-6-fluoro-1'-[3-(4-hydroxypiperidino)propyl]-spiro[chroman-4,4'-imidazolidine]-2',5'-dione] | – | – | 780 | 860 | – |
| CC(C)N(CCC(C(N)=O)(c1ccccc1)c1ccccn1)C(C)C (stereo not shown) [Disopyramide phosphate, reference compound] | 50 | 600 | – | – | – |
| O=C1NC(=O)C(c2ccccc2)(c2ccccc2)N1 [Phenytoin sodium, reference compound] | 100 | > 800 | – | – | – |
| C=CC1CN2CCC1CC2C(O)c1ccnc2ccc(OC)cc12 (stereo not shown) [Quinidine sulfonate, reference compound] | 200 | 800 | – | – | – |
| CC(C)N(CCC(C(N)=O)(c1ccccc1)c1ccccn1)C(C)C (stereo not shown) [disopyramide] | – | – | – | – | reduce the contraction power of the myocardia |
| CC1(C)CC2(NC(=O)N(CCCN3CCC(O)CC3)C2=O)c2cc(Cl)ccc2O1 (stereo not shown) [drawing 12] | 25 | 400 | – | – | – |
| CC1(C)CC2(NC(=O)N(CCCN3CCC(O)CC3)C2=O)c2cc(F)ccc2O1 (stereo not shown) [drawing 13] | 25 | 400 | – | – | – |
| C=C[C@H]1C[N@@]2CC[C@H]1C[C@@H]2[C@@H](O)c1ccnc2ccc(OC)cc12 [quinidine] | – | – | – | – | reduce the contraction power of the myocardia |
